Laboratory results reported in ChEMBL document CHEMBL1143830, “Compartmental pharmacokinetic analysis of oral amprenavir with secondary peaks” (Antimicrob Agents Chemother, 2007).

How the values were obtained:
Type in all cases: ADME, organism-based
[1] = Elimination half life at beta phase in HIV-seronegative human at 600 mg, po by two compartment model; conditions: in vivo
[2] = Total clearance in HIV-seronegative human at 600 mg, po by two compartment model; conditions: in vivo
[3] = Central volume of distribution in HIV-seronegative human at 600 mg, po by two compartment model; conditions: in vivo, read-out: Vc/F
[4] = Distribution half life at alpha phase in HIV-seronegative human at 600 mg, po by two compartment model; conditions: in vivo

CC(C)CN(C[C@@H](O)[C@H](Cc1ccccc1)NC(=O)O[C@H]1CCOC1)S(=O)(=O)c1ccc(N)cc1 [AMPRENAVIR] showed a half-life [1] of 15.8 h, a CL/F [2] of 19.4 mL/min/kg and a Vd/F [3] of 1.21 L/kg. The half-life [4] was 0.547 h.
